Ten molecules from ChEMBL document CHEMBL4725420, “Selective DYRK1A Inhibitor for the Treatment of Neurodegenerative Diseases: Alzheimer, Parkinson, Huntington, and Down Syndrome” (ACS Med Chem Lett, 2020) can be followed below.

This assay concerns the target Dual specificity tyrosine-phosphorylation-regulated kinase 1A (Homo sapiens, UniProt Q13627). The assay is described as follows: Binding affinity to DYRK1A (unknown origin).
For `NC(=O)c1ccc(-n2cnc3ccc(-c4ccncc4)c(F)c32)nc1`, the dissociation constant (Kd) is 0.5 nM.
`O=C(O)c1ccc(-n2cnc3ccc(-c4ccncc4)nc32)cc1` yielded an equilibrium dissociation constant (Kd) of 0.5 nM.
`CC(=O)N1C[C@@H]2[C@H](C1)[C@H]2n1c(C)nc2ccc(-c3ccncc3)nc21` returned a Kd of 0.5 nM.
Turning to `Fc1c(-c2ccncc2)ccc2ncn(-c3ccc4c(c3)OCO4)c12`, the Kd was 0.5 nM.
`CC(=O)N1CC[C@H](n2c(C)nc3ccc(-c4ccncc4)nc32)C1` yielded a Kd of 101 nM.
As for `c1cc(-c2ccc3ncn(-c4ccc5c(c4)OCO5)c3n2)ccn1`, the Kd amounted to 0.5 nM.
`Cc1nc2ccc(-c3ccncc3)nc2n1-c1ccc2c(c1)OCC(=O)N2` yielded a Kd of 0.5 nM.
Consider `COC(=O)c1ccc(-n2cnc3ccc(-c4ccncc4)c(F)c32)cc1`, for which the Kd is 0.5 nM.
`Cc1nc2ccc(-c3cnn(C4CC4)c3)nc2n1-c1ccc(N2CCOCC2)c(F)c1` registered a dissociation constant (Kd) of 0.5 nM.
In turn, `Cc1nc2ccc(-c3ccncc3)nc2n1-c1ccc(CN2CCOCC2)cc1` yielded a dissociation constant Kd of 0.5 nM.
